Experimental data: PubChem BioAssay (NCI)
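Briefly, cells in 96-well plates were exposed to five compound concentrations for 48 h, and endpoints were estimated by linear interpolation. At the TGI there is no net growth.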

Tests used:
Experiment in all cases: inhibition of tumour cell growth, NCI panel, 48 h
[1] = system: 786-0 renal
[2] = system: A549 NSCLC
[3] = system: ACHN renal
[4] = system: CAKI-1 renal
[5] = system: CCRF-CEM leukemia
[6] = system: COLO 205 colon
[7] = system: DLD-1 colon
[8] = system: DMS 114 small cell lung
[9] = system: DMS 273 small cell lung
[10] = system: HCC-2998 colon
[11] = system: HCT-116 colon
[12] = system: HCT-15 colon
[13] = system: HL-60(TB) leukemia
[14] = system: HOP-62 NSCLC
[15] = system: HOP-92 NSCLC
[16] = system: HT29 colon
[17] = system: IGROV1 ovarian
[18] = system: K-562 leukemia
[19] = system: KM12 colon
[20] = system: KM20L2 colon
[21] = system: LOX IMVI melanoma
[22] = system: LXFL 529 NSCLC
[23] = system: M14 melanoma
[24] = system: M19-MEL melanoma
[25] = system: MALME-3M melanoma
[26] = system: MOLT-4 leukemia
[27] = system: NCI-H226 lung
[28] = system: NCI-H23 lung
[29] = system: NCI-H460 lung
[30] = system: NCI-H522 lung
[31] = system: OVCAR-3 ovarian
[32] = system: OVCAR-4 ovarian
[33] = system: OVCAR-5 ovarian
[34] = system: OVCAR-8 ovarian
[35] = system: RPMI-8226 leukemia
[36] = system: RXF 393 renal
[37] = system: SF-268 CNS
[38] = system: SF-295 CNS
[39] = system: SF-539 CNS
[40] = system: SK-MEL-28 melanoma
[41] = system: SK-MEL-5 melanoma
[42] = system: SK-OV-3 ovarian
[43] = system: SN12C renal
[44] = system: SNB-19 CNS
[45] = system: SNB-75 CNS
[46] = system: SNB-78 CNS
[47] = system: SR leukemia
[48] = system: SW-620 colon
[49] = system: U251 CNS
[50] = system: UACC-257 melanoma
[51] = system: UACC-62 melanoma
[52] = system: UO-31 renal
[53] = system: XF 498 CNS
[54] = system: EKVX NSCLC
[55] = system: HOP-18 NSCLC
[56] = system: SK-MEL-2 melanoma
[57] = system: TK-10 renal
[58] = system: A498 renal
[59] = system: BT-549 breast
[60] = system: DU-145 prostate
[61] = system: HS 578T breast
[62] = system: MCF7 breast
[63] = system: MDA-MB-231 breast
[64] = system: MDA-MB-435
[65] = system: MDA-N
[66] = system: NCI/ADR-RES ovarian
[67] = system: PC-3 prostate
[68] = system: T-47D breast

## CN(C)/N=C(/c1nc2ccc([N+](=O)[O-])cc2[nH]c1=O)C(O)c1ccco1 (stereo unspecified)
[1]
  TGI: > 100 µM
[2]
  TGI: > 100 µM
[3]
  TGI: > 100 µM
[4]
  TGI: > 100 µM
[5]
  TGI: > 100 µM
[6]
  TGI: > 100 µM
[7]
  TGI: > 100 µM
[8]
  TGI: > 100 µM
[9]
  TGI: > 100 µM
[10]
  TGI: > 100 µM
[11]
  TGI: > 100 µM
[12]
  TGI: > 100 µM
[13]
  TGI: > 100 µM
[14]
  TGI: > 100 µM
[15]
  TGI: > 100 µM
[16]
  TGI: > 100 µM
[17]
  TGI: > 100 µM
[18]
  TGI: > 100 µM
[19]
  TGI: > 100 µM
[20]
  TGI: > 100 µM
[21]
  TGI: > 100 µM
[22]
  TGI: > 100 µM
[23]
  TGI: > 100 µM
[24]
  TGI: > 100 µM
[25]
  TGI: > 100 µM
[26]
  TGI: > 100 µM
[27]
  TGI: > 100 µM
[28]
  TGI: > 100 µM
[29]
  TGI: > 100 µM
[30]
  TGI: 92.2 µM
[31]
  TGI: > 100 µM
[32]
  TGI: > 100 µM
[33]
  TGI: > 100 µM
[34]
  TGI: > 100 µM
[35]
  TGI: > 100 µM
[36]
  TGI: > 100 µM
[37]
  TGI: > 100 µM
[38]
  TGI: > 100 µM
[39]
  TGI: > 100 µM
[40]
  TGI: > 100 µM
[41]
  TGI: > 100 µM
[42]
  TGI: > 100 µM
[43]
  TGI: > 100 µM
[44]
  TGI: > 100 µM
[45]
  TGI: > 100 µM
[46]
  TGI: > 100 µM
[47]
  TGI: > 100 µM
[48]
  TGI: > 100 µM
[49]
  TGI: > 100 µM
[50]
  TGI: > 100 µM
[51]
  TGI: > 100 µM
[52]
  TGI: 90.5 µM
[53]
  TGI: > 100 µM

## CN(CCO)c1nc(N)cc(=O)[nH]1
[1]
  TGI: > 100 µM
[2]
  TGI: > 100 µM
[3]
  TGI: > 100 µM
[4]
  TGI: > 100 µM
[5]
  TGI: > 100 µM
[6]
  TGI: > 100 µM
[7]
  TGI: > 100 µM
[8]
  TGI: > 100 µM
[9]
  TGI: > 100 µM
[54]
  TGI: > 100 µM
[10]
  TGI: > 100 µM
[11]
  TGI: > 100 µM
[12]
  TGI: > 100 µM
[13]
  TGI: > 100 µM
[55]
  TGI: > 100 µM
[14]
  TGI: > 100 µM
[15]
  TGI: > 100 µM
[16]
  TGI: > 100 µM
[17]
  TGI: > 100 µM
[18]
  TGI: > 100 µM
[19]
  TGI: > 100 µM
[20]
  TGI: > 100 µM
[21]
  TGI: > 100 µM
[22]
  TGI: > 100 µM
[23]
  TGI: > 100 µM
[24]
  TGI: > 100 µM
[25]
  TGI: > 100 µM
[26]
  TGI: > 100 µM
[27]
  TGI: > 100 µM
[28]
  TGI: > 100 µM
[29]
  TGI: > 100 µM
[30]
  TGI: > 100 µM
[31]
  TGI: > 100 µM
[33]
  TGI: > 100 µM
[34]
  TGI: > 100 µM
[35]
  TGI: > 100 µM
[36]
  TGI: > 100 µM
[37]
  TGI: > 100 µM
[38]
  TGI: > 100 µM
[39]
  TGI: > 100 µM
[56]
  TGI: > 100 µM
[40]
  TGI: > 100 µM
[41]
  TGI: > 100 µM
[42]
  TGI: > 100 µM
[43]
  TGI: > 100 µM
[44]
  TGI: > 100 µM
[45]
  TGI: > 100 µM
[46]
  TGI: > 100 µM
[47]
  TGI: > 100 µM
[48]
  TGI: > 100 µM
[57]
  TGI: > 100 µM
[49]
  TGI: > 100 µM
[50]
  TGI: > 100 µM
[51]
  TGI: > 100 µM
[52]
  TGI: > 100 µM
[53]
  TGI: > 100 µM

## Oc1ccccc1C=Nc1ccc(-c2nc3ccccc3[nH]2)cc1
[1]
  TGI: > 100 µM
[58]
  TGI: > 100 µM
[2]
  TGI: > 100 µM
[3]
  TGI: > 100 µM
[59]
  TGI: 54.4 µM
[4]
  TGI: > 100 µM
[5]
  TGI: 71.5 µM
[6]
  TGI: > 100 µM
[60]
  TGI: > 100 µM
[54]
  TGI: > 100 µM
[11]
  TGI: > 100 µM
[12]
  TGI: > 100 µM
[13]
  TGI: > 100 µM
[14]
  TGI: > 100 µM
[15]
  TGI: > 100 µM
[61]
  TGI: > 100 µM
[16]
  TGI: > 100 µM
[17]
  TGI: > 100 µM
[18]
  TGI: > 100 µM
[19]
  TGI: > 100 µM
[21]
  TGI: > 100 µM
[23]
  TGI: > 100 µM
[25]
  TGI: > 100 µM
[62]
  TGI: > 100 µM
[63]
  TGI: > 100 µM
[64]
  TGI: > 100 µM
[65]
  TGI: > 100 µM
[26]
  TGI: > 100 µM
[27]
  TGI: > 100 µM
[28]
  TGI: > 100 µM
[29]
  TGI: > 100 µM
[30]
  TGI: > 100 µM
[66]
  TGI: 53.2 µM
[31]
  TGI: > 100 µM
[32]
  TGI: > 100 µM
[33]
  TGI: > 100 µM
[34]
  TGI: > 100 µM
[67]
  TGI: > 100 µM
[35]
  TGI: > 100 µM
[36]
  TGI: > 100 µM
[37]
  TGI: > 100 µM
[38]
  TGI: > 100 µM
[39]
  TGI: > 100 µM
[56]
  TGI: > 100 µM
[40]
  TGI: > 100 µM
[41]
  TGI: > 100 µM
[42]
  TGI: > 100 µM
[43]
  TGI: > 100 µM
[44]
  TGI: > 100 µM
[45]
  TGI: > 100 µM
[47]
  TGI: > 100 µM
[48]
  TGI: > 100 µM
[68]
  TGI: 66.5 µM
[57]
  TGI: > 100 µM
[49]
  TGI: > 100 µM
[50]
  TGI: > 100 µM
[52]
  TGI: > 100 µM
